Data from US11071731B2, “Allosteric modulators of the mu opioid receptor” (Chiromics, LLC, priority 2017, dated 2021).

How the values were obtained:
mu opioid receptor (MOR) [1] = target: T1, mu opioid receptor (MOR) (Homo sapiens, UniProt P35372); experiment: PathHunter β-arrestin recruitment assay, PAM mode with EC20 endomorphin-1; assay type: cell-based; details: β-arrestin recruitment; for β-arr Max. Resp.: maximal response; for EC50: read-out: β-arr. EC50
In short: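 β-Arrestin recruitment to the receptor was tracked by chemiluminescent β-galactosidase activity from complementing fragments (ED on receptor, EA on β-arrestin). Per-compound outputs were EC50 and percent maximal response.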

mu opioid receptor (MOR) [2] = target: T1, mu opioid receptor (MOR); experiment: Hit Hunter cAMP signaling assay (adenylyl cyclase inhibition), PAM mode with EC20 endomorphin-1; assay type: cell-based; details: for cAMP Max. Resp.: maximal response
[3] = cAMP EC50, adenylyl cyclase inhibition
[4] = adenylyl cyclase inhibition, read-out: cAMP EC50

T1 sequence (P35372 whole entry, the tested form may be a part): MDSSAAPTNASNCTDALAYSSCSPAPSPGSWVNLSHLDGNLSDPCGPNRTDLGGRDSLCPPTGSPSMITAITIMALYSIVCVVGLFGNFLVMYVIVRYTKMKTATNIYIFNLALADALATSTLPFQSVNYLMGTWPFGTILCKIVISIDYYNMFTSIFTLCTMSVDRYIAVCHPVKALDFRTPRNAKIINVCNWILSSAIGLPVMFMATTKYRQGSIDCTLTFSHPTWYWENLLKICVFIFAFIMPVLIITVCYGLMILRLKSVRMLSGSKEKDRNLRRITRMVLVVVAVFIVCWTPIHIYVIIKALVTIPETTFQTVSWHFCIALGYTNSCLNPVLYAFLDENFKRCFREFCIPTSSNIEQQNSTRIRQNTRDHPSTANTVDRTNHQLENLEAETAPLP

Row | Compound | β-arr Max. Resp. (mu opioid receptor (MOR) [1]) | EC50 (mu opioid receptor (MOR) [1]) [nM] | EC50 (mu opioid receptor (MOR) [2]; [3]) [nM] | cAMP Max. Resp. (mu opioid receptor (MOR) [2]; adenylyl cyclase inhibition) | EC50 (mu opioid receptor (MOR) [2]; [4]) [nM]
1 | OC1Cc2ccccc2C1N1CCCCC1c1ccc(F)c(Cl)c1 (stereo not shown) [compound 447] | D (D represents a maximal response of < 40%) | > 2100 | > 2100 | D (D represents a maximal response of < 40%) | 
2 | CC1CC(c2cccc(C(F)(F)F)c2)N(c2nc(Cl)ncc2F)C1 (stereo not shown) [compound 448] | F (F represents a maximal response of > 60%) | > 2100 |  | D (D represents a maximal response of < 40%) | > 2100
3 | COc1ccc(C2CCCCN2c2nc(Cl)c(C#N)cc2F)cc1Br (stereo not shown) [compound 449] | F (F represents a maximal response of > 60%) | > 2100 | > 2100 | D (D represents a maximal response of < 40%) | 
4 | CC1CC(c2cc(F)cc(C(F)(F)F)c2)N(c2nc(Cl)ncc2F)C1 (stereo not shown) [compound 450] | F (F represents a maximal response of > 60%) | > 2100 |  | E (E represents a maximal response of 40-60%) | > 2100
5 | C#Cc1cccc(N2CCCCC2c2cccc(C(F)(F)F)n2)c1 (stereo not shown) [compound 451] | F (F represents a maximal response of > 60%) | > 2100 | > 2100 | D (D represents a maximal response of < 40%) | 
6 | FC(F)(F)c1ccc(N2CCCCC2c2cccc(C(F)(F)F)n2)cc1 (stereo not shown) [compound 452] | E (E represents a maximal response of 40-60%) | > 2100 | > 2100 | D (D represents a maximal response of < 40%) | 
7 | Fc1ccc(C2CCCCN2c2ccc(C(F)(F)F)cc2)cc1Cl (stereo not shown) [compound 453] | D (D represents a maximal response of < 40%) | > 2100 | > 2100 | D (D represents a maximal response of < 40%) | 
8 | FC(F)(F)c1cccc(C2CCCCN2c2ccc(Cl)cc2)n1 (stereo not shown) [compound 454] | E (E represents a maximal response of 40-60%) | > 2100 |  | D (D represents a maximal response of < 40%) | > 2100
9 | COc1cccc(N2CCCCC2c2cccc(C(F)(F)F)n2)c1 (stereo not shown) [compound 455] | E (E represents a maximal response of 40-60%) | > 2100 |  | D (D represents a maximal response of < 40%) | > 2100
10 | Fc1cc(C2CC(C(F)(F)F)CN2c2nc(Cl)ncc2F)cc(C(F)(F)F)c1 (stereo not shown) [compound 457] | F (F represents a maximal response of > 60%) | > 2100 |  | E (E represents a maximal response of 40-60%) | > 2100
11 | Cc1ccc(N2CCCCC2c2ccc(F)c(Cl)c2)cc1 (stereo not shown) [compound 458] | E (E represents a maximal response of 40-60%) | > 2100 | > 2100 | D (D represents a maximal response of < 40%) | 
12 | FC(F)(F)c1cccc(C2CCCCN2c2cccc(Cl)c2)n1 (stereo not shown) [compound 459] | F (F represents a maximal response of > 60%) | > 2100 |  | D (D represents a maximal response of < 40%) | > 2100
13 | COc1ncc(F)c(N2CCCCC2c2ccc(F)c(Cl)c2)n1 (stereo not shown) [compound 461] | F (F represents a maximal response of > 60%) | > 2100 | > 2100 | E (E represents a maximal response of 40-60%) | 
14 | [N-]=[N+]=Nc1ccc(N2CCCCC2c2ccc(F)c(Cl)c2)cc1 (stereo not shown) [compound 462] | E (E represents a maximal response of 40-60%) | > 2100 | > 2100 | D (D represents a maximal response of < 40%) | 
15 | C#Cc1ccccc1N1CCCCC1c1ccc(F)c(Cl)c1 (stereo not shown) [compound 463] | D (D represents a maximal response of < 40%) | > 2100 |  | D (D represents a maximal response of < 40%) | > 2100
16 | Fc1ccc(C2CC(F)CN2c2nc(Cl)ncc2F)cc1Cl (stereo not shown) [compound 464] | E (E represents a maximal response of 40-60%) | > 2100 |  | E (E represents a maximal response of 40-60%) | > 2100
17 | COc1cccc(N2CCCCC2c2ccc(F)c(Cl)c2)c1 (stereo not shown) [compound 465] | E (E represents a maximal response of 40-60%) | > 2100 | > 2100 | D (D represents a maximal response of < 40%) | 

Row | Compound | β-arr Max. Resp. (mu opioid receptor (MOR) [1]) | EC50 (mu opioid receptor (MOR) [1]) [nM] | EC50 (mu opioid receptor (MOR) [2]; [3]) [nM] | cAMP Max. Resp. (mu opioid receptor (MOR) [2]; adenylyl cyclase inhibition) | EC50 (mu opioid receptor (MOR) [2]; [4]) [nM]
18 | COc1ccc(C2CC(F)(F)CN2c2nc(Cl)ncc2F)cc1Br (stereo not shown) [compound 466] | F (F represents a maximal response of > 60%) | > 2100 |  | D (D represents a maximal response of < 40%) | > 2100
19 | Fc1cnc(Cl)nc1N1CC(F)(F)CC1c1cccc(C(F)(F)F)c1 (stereo not shown) [compound 467] | F (F represents a maximal response of > 60%) | > 2100 |  | D (D represents a maximal response of < 40%) | > 2100
20 | Fc1cc(C2CC(F)CN2c2nc(Cl)ncc2F)cc(C(F)(F)F)c1 (stereo not shown) [compound 468] | F (F represents a maximal response of > 60%) | > 2100 |  | F (F represents a maximal response of > 60%) | > 2100
21 | FC(F)(F)c1cccc(C2CCCCN2c2ccnc(Cl)n2)n1 (stereo not shown) [compound 469] | F (F represents a maximal response of > 60%) | > 2100 | > 2100 | D (D represents a maximal response of < 40%) | 
22 | Fc1ccc(C2CCCCN2c2ccnc(Cl)n2)cc1Cl (stereo not shown) [compound 470] | F (F represents a maximal response of > 60%) | > 2100 | > 2100 | E (E represents a maximal response of 40-60%) | 
23 | Cc1cc(C)cc(N2CCCCC2c2ccc(F)c(Cl)c2)c1 (stereo not shown) [compound 471] | F (F represents a maximal response of > 60%) | > 2100 | > 2100 | D (D represents a maximal response of < 40%) | 
24 | Fc1cnc(Cl)nc1N1CC(C(F)(F)F)CC1c1cccc(C(F)(F)F)c1 (stereo not shown) [compound 473] | E (E represents a maximal response of 40-60%) | > 2100 |  | D (D represents a maximal response of < 40%) | > 2100
25 | COc1ccc(N2CCCCC2c2cccc(C(F)(F)F)n2)cc1 (stereo not shown) [compound 474] | D (D represents a maximal response of < 40%) | > 2100 |  | D (D represents a maximal response of < 40%) | > 2100
26 | Fc1ccc(N2CCCCC2c2ccc(F)c(Cl)c2)cc1 (stereo not shown) [compound 475] | F (F represents a maximal response of > 60%) | > 2100 | > 2100 | D (D represents a maximal response of < 40%) | 
27 | Fc1ccc(C2CC(C(F)(F)F)CN2c2nc(Cl)ncc2F)cc1Cl (stereo not shown) [compound 476] | E (E represents a maximal response of 40-60%) | > 2100 |  | D (D represents a maximal response of < 40%) | > 2100
28 | COC(=O)c1ccc(N2CCCCC2c2ccc(F)c(Cl)c2)cc1 (stereo not shown) [compound 477] | F (F represents a maximal response of > 60%) | > 2100 | > 2100 | D (D represents a maximal response of < 40%) | 
29 | COC(=O)c1ccc(N2CCCCC2c2cccc(C(F)(F)F)n2)cc1 (stereo not shown) [compound 478] | F (F represents a maximal response of > 60%) | > 2100 | > 2100 | D (D represents a maximal response of < 40%) | 
30 | Fc1ccc(C2CCCCN2c2cccnc2N2CCOCC2)cc1Cl (stereo not shown) [compound 479] | F (F represents a maximal response of > 60%) | > 2100 |  | D (D represents a maximal response of < 40%) | > 2100
31 | Cc1nccc(N2CCCCC2c2ccc(F)c(Cl)c2)n1 (stereo not shown) [compound 480] | D (D represents a maximal response of < 40%) | > 2100 | > 2100 | D (D represents a maximal response of < 40%) | 
32 | Fc1cnc(Cl)nc1N1CC(F)CC1c1cccc(C(F)(F)F)n1 (stereo not shown) [compound 481] | D (D represents a maximal response of < 40%) | > 2100 |  | D (D represents a maximal response of < 40%) | > 2100
33 | Fc1cnc(Cl)nc1N1CC(F)(F)CC1c1cccc(C(F)(F)F)n1 (stereo not shown) [compound 482] | D (D represents a maximal response of < 40%) | > 2100 |  | D (D represents a maximal response of < 40%) | > 2100
34 | COc1ccc(C2CCCCN2S(=O)(=O)c2ccn(C)n2)cc1Br (stereo not shown) [compound 483] | D (D represents a maximal response of < 40%) | > 2100 | > 2100 | D (D represents a maximal response of < 40%) | 
